From ChEMBL document CHEMBL1141596, “A new class of bradykinin B1 receptor antagonists with high oral bioavailability and minimal PXR activity” (Bioorg Med Chem Lett, 2008)

Legend:
[1] = Oral bioavailability in Sprague-Dawley rat at 10 mg/kg; format: ADME, organism-based; details: in vivo
[2] = Half life in Sprague-Dawley rat at 10 mg/kg, po or 2 mg/kg, iv; format: ADME, organism-based; details: in vivo
[3] = Clearance in Sprague-Dawley rat at 10 mg/kg, po or 2 mg/kg, iv; format: ADME, organism-based; details: in vivo
[4] = molecular target: T1, PXR (Nuclear receptor subfamily 1 group I member 2) (Homo sapiens, UniProt O75469); assay: Reduction of PXR activation at 10 uM relative to rifampicin; design: scale not given: the % may be the effect or the level left; details: read-out: Activity
T1 sequence (O75469 whole entry): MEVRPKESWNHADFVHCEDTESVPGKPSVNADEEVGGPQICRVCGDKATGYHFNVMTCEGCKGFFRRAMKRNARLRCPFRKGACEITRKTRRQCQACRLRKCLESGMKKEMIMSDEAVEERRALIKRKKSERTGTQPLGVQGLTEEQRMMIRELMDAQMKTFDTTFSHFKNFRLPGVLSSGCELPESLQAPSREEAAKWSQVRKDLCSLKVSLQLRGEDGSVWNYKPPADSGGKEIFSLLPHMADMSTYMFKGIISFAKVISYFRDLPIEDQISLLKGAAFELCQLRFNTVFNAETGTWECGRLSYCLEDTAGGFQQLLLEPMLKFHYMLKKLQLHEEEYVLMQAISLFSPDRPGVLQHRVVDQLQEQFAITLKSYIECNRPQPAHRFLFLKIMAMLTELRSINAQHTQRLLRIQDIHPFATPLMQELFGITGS

[5] = Half life in Mongrel dog at 1 mg/kg, iv; format: ADME, organism-based, Canis lupus familiaris; design: dose 1 mg/kg, route intravenous; details: in vivo
[6] = Clearance in Mongrel dog at 1 mg/kg, iv; format: ADME, organism-based, Canis lupus familiaris; design: dose 1 mg/kg, route intravenous; details: in vivo
B1 bradykinin receptor = molecular target: T2, B1 bradykinin receptor (Homo sapiens, UniProt P46663); assay: Binding affinity to human bradykinin B1 receptor expressed in rat CNS
T2 sequence (P46663 whole entry): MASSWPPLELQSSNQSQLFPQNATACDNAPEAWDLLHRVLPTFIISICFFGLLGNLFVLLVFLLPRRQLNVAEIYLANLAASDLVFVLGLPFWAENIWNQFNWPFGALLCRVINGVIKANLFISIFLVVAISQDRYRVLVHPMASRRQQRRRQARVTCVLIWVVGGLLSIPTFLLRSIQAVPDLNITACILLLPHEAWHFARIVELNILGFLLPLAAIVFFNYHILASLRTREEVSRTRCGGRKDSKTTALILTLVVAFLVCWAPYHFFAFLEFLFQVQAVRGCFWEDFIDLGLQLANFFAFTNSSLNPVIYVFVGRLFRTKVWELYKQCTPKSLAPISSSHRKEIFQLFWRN

[7] = molecular target: T3, B1 bradykinin receptor (Homo sapiens) (UniProt P46663); assay: Ex vivo receptor occupancy at bradykinin B1 receptor
T3 sequence (whole entry): T2 sequence (P46663 whole entry)

[8] = Ratio of drug level in brain to plasma in african green monkey; format: ADME, organism-based; details: chlorocebus aethiops
[9] = Oral bioavailability in Mongrel dog at 3 mg/kg; format: ADME, organism-based, Canis lupus familiaris; details: in vivo
[10] = Oral bioavailability in rhesus monkey at 3 mg/kg; format: ADME, organism-based, Macaca mulatta; details: in vivo
[11] = Half life in rhesus monkey at 3 mg/kg, po or 1 mg/kg, iv; format: ADME, organism-based, Macaca mulatta; details: in vivo
[12] = Clearance in rhesus monkey at 3 mg/kg, po or 1 mg/kg, iv; format: ADME, organism-based, Macaca mulatta; details: in vivo
[13] = Apparent permeability by cell based assay; format: ADME; details: not told
[14] = Ratio of permeability from basolateral to apical over apical to basolateral side in P-gp expressing cells

| Structure (SMILES) | bioavailability [1] [%] | half-life [2] [min] | clearance [3] [mL/min/kg] | activity at 10 µM [4] [%] | half-life [5] [min] | clearance [6] [mL/min/kg] | Ki (B1 bradykinin receptor) [nM] | Occ90 [7] [nM] | Kp [8] | bioavailability [9] [%] | bioavailability [10] [%] | half-life [11] [min] | clearance [12] [mL/min/kg] | Papp [13] [×10⁻⁶ cm/s] | Ratio [14] |
| --- | --- | --- | --- | --- | --- | --- | --- | --- | --- | --- | --- | --- | --- | --- | --- |
| CCOc1c(Cl)cc(Cl)cc1-c1cnc([C@@H](C)NC(=O)C2(NC(=O)c3ccno3)CC2)c(F)c1 | 7 | 114 | 10 | 15 | 270 | 7 | 0.6 | 380 | 1.4 | 55 | 3 | 72 | 15 | – | – |
| COc1cc(C(=O)NC2(C(=O)N[C@H](C)c3ncc(-c4cc(Cl)cc(Cl)c4OCC(F)F)cc3F)CC2)on1 | 44 | 270 | 2.4 | 8 | 1260 | 1.2 | 0.5 | 540 | 0.7 | 94 | 93 | 372 | 1.6 | 28 | 2 |
| C[C@@H](NC(=O)C1(NC(=O)C(F)(F)F)CC1)c1ncc(-c2cc(Cl)cc(Cl)c2OCC(F)F)cc1F | – | – | – | 99 | 1260 | 2.3 | 1.5 | – | – | – | – | – | – | 23 | – |
| C[C@@H](NC(=O)C1(NC(=O)c2ccno2)CC1)c1ncc(-c2cc(Cl)cc(Cl)c2OCC(F)F)cc1F | – | – | – | 21 | 240 | 5.9 | 0.4 | – | – | – | – | – | – | 29 | 3.9 |
| COC(=O)c1c(Cl)cc(Cl)cc1-c1ccc([C@@H](C)NC(=O)C2(NC(=O)c3cc(OC)no3)CC2)c(F)c1 | – | – | – | 40 | – | – | 0.4 | – | – | – | – | – | – | – | 5.1 |
| C[C@@H](NC(=O)C1(NC(=O)C(F)(F)F)CC1)c1ccc(-c2cc(Cl)cc(Cl)c2OCC(F)(F)F)cc1F | 35 | 1620 | 1.1 | 45 | – | – | 1.8 | – | – | – | – | – | – | 6.3 | – |
| CCOc1cc(C(=O)NC2(C(=O)N[C@H](C)c3ncc(-c4cc(Cl)cc(Cl)c4OCC(F)F)cc3F)CC2)on1 | – | – | – | 37 | 810 | 3 | 1.1 | – | – | – | – | – | – | 25 | 2.1 |
| CCOc1c(Cl)cc(Cl)cc1-c1cnc([C@@H](C)NC(=O)C2(NC(=O)C(F)(F)F)CC2)c(F)c1 | 8 | 300 | 11.3 | 89 | – | – | 1.5 | 1450 | 2.2 | – | – | – | – | – | – |
| C[C@@H](NC(=O)C1(NC(=O)c2cc(Cl)no2)CC1)c1ncc(-c2cc(Cl)cc(Cl)c2OCC(F)F)cc1F | – | – | – | 68 | 2040 | 2.6 | 0.2 | – | – | – | – | – | – | 26 | 1.6 |
| C[C@@H](NC(=O)C1(NC(=O)c2ccon2)CC1)c1ncc(-c2cc(Cl)cc(Cl)c2OCC(F)F)cc1F | – | – | – | 23 | 1080 | 2 | 1.2 | – | – | – | – | – | – | 35 | 1.8 |
| C[C@@H](NC(=O)C1(NC(=O)c2cc(C3CC3)on2)CC1)c1ncc(-c2cc(Cl)cc(Cl)c2OCC(F)F)cc1F | – | – | – | 58 | 414 | 13 | 2.6 | – | – | – | – | – | – | 18 | 3.8 |
| CC(C)Oc1c(Cl)cc(Cl)cc1-c1ccc([C@@H](C)NC(=O)C2(NC(=O)C(F)(F)F)CC2)c(F)c1 | – | – | – | – | – | – | 2.3 | – | – | – | – | – | – | – | – |

Second part, the compound after the results:

| bioavailability [1] [%] | half-life [2] [min] | clearance [3] [mL/min/kg] | activity at 10 µM [4] [%] | half-life [5] [min] | clearance [6] [mL/min/kg] | Ki (B1 bradykinin receptor) [nM] | Occ90 [7] [nM] | Kp [8] | bioavailability [9] [%] | bioavailability [10] [%] | half-life [11] [min] | clearance [12] [mL/min/kg] | Papp [13] [×10⁻⁶ cm/s] | Ratio [14] | Structure (SMILES) |
| --- | --- | --- | --- | --- | --- | --- | --- | --- | --- | --- | --- | --- | --- | --- | --- |
| 48 | 114 | 16 | – | – | – | 0.9 | – | – | – | – | – | – | 29 | 1.9 | CCOc1c(Cl)cccc1-c1ccc([C@@H](C)NC(=O)C2(NC(=O)C(F)(F)F)CC2)c(F)c1 |
| 38 | 450 | 11.5 | 62 | – | – | 1.3 | – | – | – | – | – | – | 18 | – | CCOc1c(Cl)cc(Cl)cc1-c1ccc([C@@H](C)NC(=O)C2(NC(=O)C(F)(F)F)CC2)c(F)c1 |
| 30 | 180 | 5.1 | 28 | 564 | 4.5 | 1.4 | 940 | 0.9 | 21 | 25 | 96 | 9.1 | 23 | 1.5 | Cc1cc(C(=O)NC2(C(=O)N[C@H](C)c3ncc(-c4cc(Cl)cc(Cl)c4OCC(F)F)cc3F)CC2)no1 |
| – | – | – | 77 | 96 | 20 | 0.4 | – | – | – | – | – | 11.2 | – | – | COC(=O)c1c(Cl)cc(Cl)cc1-c1ccc([C@@H](C)NC(=O)C2(NC(=O)C(F)(F)F)CC2)c(F)c1 |
| – | 456 | 5.8 | 95 | – | – | 0.2 | – | – | – | – | – | – | 26 | – | C[C@@H](NC(=O)C1(NC(=O)C(F)(F)F)CC1)c1ccc(-c2cc(Cl)cc(Cl)c2OCC(F)F)cc1F |
| 56 | 300 | 1.6 | – | – | – | 0.9 | – | – | – | – | – | – | 28 | – | C[C@@H](NC(=O)C1(NC(=O)C(F)(F)F)CC1)c1ccc(-c2cc(Cl)cc(Cl)c2OC(CF)CF)cc1F |
| – | – | – | 37 | 270 | 14 | 1.9 | – | – | – | – | – | – | 25 | 2 | CCc1cc(C(=O)NC2(C(=O)N[C@H](C)c3ncc(-c4cc(Cl)cc(Cl)c4OCC(F)F)cc3F)CC2)no1 |
